This experiment deals with CD2F1 mice, L1210 leukemia ip, survival T/C. The experiment in a line: NCI In Vivo Anticancer Drug Screen. Data for tumor model L1210 Leukemia (intraperitoneal) in CD2F1 (CDF1) mice. To be noted: higher = longer survival. The method in brief:
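Transplantable tumor in mice; compound-treated vs vehicle-treated groups. Read-out = treated/control ratio of the measured endpoint.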

The mark [1] stands for this setting: endpoint: mean survival time, dose: 100.0 mg/kg/injection, schedule: Q04DX002 (ip), vehicle: saline with Tween-80.
Where [2] appears, read: endpoint: mean survival time, dose: 200.0 mg/kg/injection, schedule: Q04DX002 (ip), vehicle: saline with Tween-80.
[3] abbreviates: endpoint: mean survival time, dose: 400.0 mg/kg/injection, schedule: Q04DX002 (ip), vehicle: saline with Tween-80.
Setting [4] is: endpoint: mean survival time, dose: 100.0 mg/kg/injection, schedule: Q01DX009 (ip), vehicle: saline with Tween-80.
Where [5] appears, read: endpoint: mean survival time, dose: 200.0 mg/kg/injection, schedule: Q01DX009 (ip), vehicle: saline with Tween-80.
[6] abbreviates: endpoint: mean survival time, dose: 400.0 mg/kg/injection, schedule: Q01DX009 (ip), vehicle: saline with Tween-80.
[7] abbreviates: endpoint: mean survival time, dose: 100.0 mg/kg/injection, schedule: Q04DX003 (ip), vehicle: saline with Tween-80.
The mark [8] stands for this setting: endpoint: mean survival time, dose: 200.0 mg/kg/injection, schedule: Q04DX003 (ip), vehicle: saline with Tween-80.
Setting [9] is: endpoint: mean survival time, dose: 400.0 mg/kg/injection, schedule: Q04DX003 (ip), vehicle: saline with Tween-80.

Each structure is given as a SMILES string. “And” between values parts separate entries of the source, which are not always exact repeats. Equal entries are not always repeated. Toxic doses and inconclusive results are not listed.

For the compound `O=C1c2ccccc2C(=O)n2nc3ccccc3c21`, the T/C is 100 % of control (endpoint: median survival time, dose: 50.0 mg/kg/injection, schedule: Q04DX002 (ip), vehicle: saline with Tween-80); 100 % of control (endpoint: median survival time, dose: 100.0 mg/kg/injection, schedule: Q04DX002 (ip), vehicle: saline with Tween-80); 90 % of control (endpoint: median survival time, dose: 200.0 mg/kg/injection, schedule: Q04DX002 (ip), vehicle: saline with Tween-80); 100 % of control (endpoint: median survival time, dose: 400.0 mg/kg/injection, schedule: Q04DX002 (ip), vehicle: saline with Tween-80).

Turning to `CCOC(=O)C1CC(=O)C2/C(=C(\O)c3ccccc3)C=C([N+](=O)[O-])C1C2[N+](=O)[O-]` (configuration not stated), the T/C runs as follows: under setting [1], 94 % of control; under setting [2], 94 % of control; under setting [3], 96 % of control.

`Cc1ccc(C(C)(c2ccccc2)C(C)(CC=O)CC(=O)O)cc1` (configuration not stated): the T/C was 95 % of control under setting [4], 94 % of control under setting [5] and 97 % of control under setting [6].

On to `CCS/C(SC)=C(/c1ccccc1)[P+](c1ccccc1)(c1ccccc1)c1ccccc1`, for which the T/C is 111 % of control (endpoint: median survival time, dose: 1.5 mg/kg/injection, schedule: Q01DX009 (ip), vehicle: Klucel (hydroxypropylcellulose) (HPC)) and 114 % of control (endpoint: median survival time, dose: 3.0 mg/kg/injection, schedule: Q01DX009 (ip), vehicle: Klucel (hydroxypropylcellulose) (HPC)).

On to `Cc1nccc2c1[nH]c1cc(N)ccc12.[Cl][Sn][Cl]`, for which the T/C is 115 % of control (endpoint: mean survival time, dose: 5.0 mg/kg/injection, schedule: Q01DX009 (ip), vehicle: saline with Tween-80); 103 % of control (endpoint: mean survival time, dose: 10.0 mg/kg/injection, schedule: Q01DX009 (ip), vehicle: saline with Tween-80); 102 % of control (endpoint: mean survival time, dose: 20.0 mg/kg/injection, schedule: Q01DX009 (ip), vehicle: saline with Tween-80).

With `O=c1[nH]c(NCCc2ccccc2)c(Br)c(=O)[nH]1`, the T/C runs as follows: (endpoint: mean survival time, dose: 75.0 mg/kg/injection, schedule: Q01DX001 (ip), vehicle: saline with Tween-80) 98 % of control; (endpoint: mean survival time, dose: 150.0 mg/kg/injection, schedule: Q01DX001 (ip), vehicle: saline with Tween-80) 102 % of control; (endpoint: mean survival time, dose: 300.0 mg/kg/injection, schedule: Q01DX001 (ip), vehicle: saline with Tween-80) 106 % of control.

For the compound `CC(=O)Nc1onc(C)c1NC(C)=O`, the T/C is, setting by setting: under setting [4], 95 % of control; under setting [5], 101 % of control; under setting [6], 95 % of control.

In the case of `CCCCCCCCCCCOc1ccccc1Cl`, the T/C is, setting by setting: under setting [1], 90 % of control; under setting [2], 93 % of control; under setting [3], 93 % of control.

Take `c1ccc(Oc2cc[c]([Sn]([c]3ccccc3)([c]3ccccc3)[c]3ccc(Oc4ccccc4)cc3)cc2)cc1`: the T/C under setting [4] is 106 % of control, the T/C under setting [5] was 100 % of control and the T/C under setting [6] is 98 % of control.

Take `Nc1ccc2c(c1)[nH]c1ccccc12`: the T/C reads like this: under setting [7], 93 % of control; under setting [8], 101 % of control.

In the case of `O=C(O)CCc1ccccc1CC(=O)O`, the T/C was 98 % of control under setting [7], 98 % of control under setting [8] and 97 % of control under setting [9].

Consider `Cc1cc(C)c(NC(=O)c2ccccc2Cl)c(C)c1`, for which the T/C is 97 % of control under setting [7], 110 % of control under setting [8] and 97 % of control under setting [9].

As for `C[n+]1c(-c2ccc(/C=N/NC(=O)c3ccc(C(=O)N/N=C/c4ccc(-c5cn6ccccc6[n+]5C)cc4)cc3)cc2)cn2ccccc21`, the T/C reads like this: (endpoint: median survival time, dose: 25.0 mg/kg/injection, schedule: Q01DX005 (ip), vehicle: saline with Tween-80) 162 % of control; (endpoint: median survival time, dose: 43.2 mg/kg/injection, schedule: Q01DX005 (ip), vehicle: saline with Tween-80) 200 % of control; (endpoint: median survival time, dose: 72.0 mg/kg/injection, schedule: Q01DX005 (ip), vehicle: saline with Tween-80) 362 % of control; (endpoint: median survival time, dose: 100.0 mg/kg/injection, schedule: Q01DX005 (ip), vehicle: saline with Tween-80) 307 % of control; (endpoint: median survival time, dose: 120.0 mg/kg/injection, schedule: Q01DX005 (ip), vehicle: saline with Tween-80) 375 % of control; (endpoint: median survival time, dose: 200.0 mg/kg/injection, schedule: Q01DX005 (ip), vehicle: saline with Tween-80) 329 % of control and 375 % of control. Further, the T/C by setting is: (endpoint: median survival time, dose: 333.33 mg/kg/injection, schedule: Q01DX005 (ip), vehicle: saline with Tween-80) 162 % of control; (endpoint: median survival time, dose: 400.0 mg/kg/injection, schedule: Q01DX005 (ip), vehicle: saline with Tween-80) 329 % of control.

With `CCN(CC)CC[n+]1ccc2c(C)c3[nH]c4ccc(O)cc4c3c(C)c2c1`, the T/C is, setting by setting: (endpoint: mean survival time, dose: 3.12 mg/kg/injection, schedule: Q01DX009 (ip), vehicle: suspension in saline) 179 % of control; (endpoint: mean survival time, dose: 6.25 mg/kg/injection, schedule: Q01DX009 (ip), vehicle: suspension in saline) 228 % of control; (endpoint: mean survival time, dose: 12.5 mg/kg/injection, schedule: Q01DX009 (ip), vehicle: suspension in saline) 170 % of control and 262 % of control; (endpoint: mean survival time, dose: 25.0 mg/kg/injection, schedule: Q01DX009 (ip), vehicle: suspension in saline) 116 % of control and 111 % of control; (endpoint: mean survival time, dose: 50.0 mg/kg/injection, schedule: Q01DX009 (ip), vehicle: saline) 102 % of control; (endpoint: mean survival time, dose: 50.0 mg/kg/injection, schedule: Q01DX009 (ip), vehicle: suspension in saline) 92 % of control.

Turning to `O=C1OCC(Cl)=C1Cl`, the T/C was 96 % of control (endpoint: mean survival time, dose: 6.25 mg/kg/injection, schedule: Q01DX009 (ip), vehicle: saline with Tween-80); 94 % of control (endpoint: mean survival time, dose: 12.5 mg/kg/injection, schedule: Q01DX009 (ip), vehicle: saline with Tween-80); 98 % of control (endpoint: mean survival time, dose: 25.0 mg/kg/injection, schedule: Q01DX009 (ip), vehicle: saline with Tween-80).

Regarding `[I][Pt+2][I].[NH-]c1ccccc1F.[NH-]c1ccccc1F`, the T/C reads like this: (endpoint: mean survival time, dose: 3.13 mg/kg/injection, schedule: Q04DX003 (ip), vehicle: distilled water + Tween-80) 98 % of control; (endpoint: mean survival time, dose: 6.25 mg/kg/injection, schedule: Q04DX003 (ip), vehicle: distilled water + Tween-80) 101 % of control; (endpoint: mean survival time, dose: 12.5 mg/kg/injection, schedule: Q04DX003 (ip), vehicle: distilled water + Tween-80) 98 % of control; (endpoint: mean survival time, dose: 25.0 mg/kg/injection, schedule: Q04DX003 (ip), vehicle: distilled water + Tween-80) 101 % of control; (endpoint: mean survival time, dose: 50.0 mg/kg/injection, schedule: Q04DX003 (ip), vehicle: distilled water + Tween-80) 102 % of control; (endpoint: mean survival time, dose: 100.0 mg/kg/injection, schedule: Q04DX003 (ip), vehicle: distilled water + Tween-80) 98 % of control. Besides, under “endpoint: mean survival time, dose: 200.0 mg/kg/injection, schedule: Q04DX003 (ip), vehicle: distilled water + Tween-80”, the T/C is 101 % of control.

Take `CC1C(c2ccccc2)OC(N2CCOCC2)C(C)(C)CN1C` (configuration not stated): the T/C was 100 % of control (endpoint: median survival time, dose: 50.0 mg/kg/injection, schedule: Q01DX009 (ip), vehicle: saline with Tween-80); 102 % of control (endpoint: median survival time, dose: 100.0 mg/kg/injection, schedule: Q01DX009 (ip), vehicle: saline with Tween-80); 102 % of control (endpoint: median survival time, dose: 200.0 mg/kg/injection, schedule: Q01DX009 (ip), vehicle: saline with Tween-80); 97 % of control (endpoint: median survival time, dose: 400.0 mg/kg/injection, schedule: Q01DX009 (ip), vehicle: saline with Tween-80).

Take `CCO/C=C1\SC(=S)N(c2ccccc2C)C1=O`: the T/C under setting [4] was 106 % of control and 111 % of control; the T/C under setting [7] is 103 % of control; the T/C under setting [5] is 103 % of control and 106 % of control; the T/C under setting [8] was 108 % of control; the T/C under setting [6] is 88 % of control; the T/C under setting [9] was 113 % of control.

In the case of `S=P(Cc1ccccc1)(c1ccccc1)c1ccccc1`, the T/C is 89 % of control (endpoint: mean survival time, dose: 50.0 mg/kg/injection, schedule: Q01DX009 (ip), vehicle: saline with Tween-80); 90 % of control under setting [4]; 88 % of control under setting [7]; 86 % of control under setting [8].

Regarding `CCOC(CCC#N)c1ccc(Cl)cc1` (configuration not stated), the T/C was 98 % of control (endpoint: mean survival time, dose: 100.0 mg/kg/injection, schedule: Q01DX009 (ip), vehicle: saline); 92 % of control under setting [7]; 101 % of control (endpoint: mean survival time, dose: 200.0 mg/kg/injection, schedule: Q01DX009 (ip), vehicle: saline); 100 % of control under setting [8]; 98 % of control (endpoint: mean survival time, dose: 400.0 mg/kg/injection, schedule: Q01DX009 (ip), vehicle: saline); 102 % of control under setting [9].

For `O=C(O)O.[Co]`, the T/C (endpoint: mean survival time, dose: 400.0 mg/kg/injection, schedule: Q01DX001 (ip), vehicle: saline) was 105 % of control.

As for `CCCCCCCCCCCCCCNC(=O)Nc1ccc(Cl)c(Cl)c1`, the T/C (endpoint: mean survival time, dose: 100.0 mg/kg/injection, schedule: Q04DX003 (ip), vehicle: other) was 89 % of control and the T/C (endpoint: mean survival time, dose: 200.0 mg/kg/injection, schedule: Q04DX003 (ip), vehicle: other) is 86 % of control.
